Our source for the inhibition values is patent US20120121540A1 (priority 2007, published 2012).

One may read the inhibition as the percentage by which the read-out fell short of the control. A lower inhibition goes with a weak effect.

The assay can be described thus: HCV replicon assay (luciferase reporter, ET cell line). In kind it is cell-based. The note with it: Hepatitis C virus, HCV replicon luciferase activity in ET cells. A digest of the protocol: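 EC50 and, via WST-1 cytotoxicity, TC50 were fitted with a Hill-coefficient equation to % inhibition across 10 two-fold dilutions. Compounds at 0.1 nM-[…] with 0.5% DMSO were applied 24 h post-seeding to replicon-bearing ET cells (luc-ubi-neo/NS3-5B, adaptive mutations). Firefly luciferase signal was measured after 48-72 h.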
For `O=C(NCc1cccc(OC(F)(F)F)c1)c1nc2c(C(F)(F)F)cc(-c3ccco3)cn2c1Cl` [Compound 203, 3-Chloro-6-furan-2-yl-8-trifluoromethyl-imidazo[1,2-a]pyridine-2-carboxylic acid 3-trifluoromethoxy-benzylamide], 10 µM produced 47.5% inhibition. The result for `O=C(NCc1ccc(OC(F)(F)F)cc1)c1nc2c(C(F)(F)F)cc(-c3ccco3)cn2c1Cl` [Compound 204, 3-Chloro-6-furan-2-yl-8-trifluoromethyl-imidazo[1,2-a]pyridine-2-carboxylic acid 4-trifluoromethoxy-benzylamide] reads 31.7%. Under `O=C(NCc1cccs1)c1nc2c(C(F)(F)F)cc(-c3ccncc3)cn2c1Cl` [Compound 207, 3-Chloro-6-pyridin-4-yl-8-trifluoromethy-imidazo[1,2-a]pyridine-2-carboxylic acid (thiophen-2-ylmethyl)-amide] stands 85.7%.

In turn, `O=C(NCc1cccs1)c1nc2c(C(F)(F)F)cc(-c3cccnc3)cn2c1Cl` [Compound 208, 3-Chloro-6-pyridin-3-yl-8-trifluoromethyl-imidazo[1,2-a]pyridine-2-carboxylic acid (thiophen-2-ylmethyl)-amide] displayed an inhibition at 10 µM of 88.5%. Under `Cc1cscc1-c1cc(C(F)(F)F)c2nc(C(=O)NCc3cccs3)c(Cl)n2c1` [Compound 209, 3-Chloro-6-(4-methyl-thiophen-3-yl)-8-trifluoromethyl-imidazo[1,2-a]pyridine-2-carboxylic acid (thiophen-2-ylmethyl)-amide] stands 83.4%; under `O=C(Nc1ccccc1)Nc1nc2c(C(F)(F)F)cc(-c3ccco3)cn2c1Cl` [Compound 211, 1-(3-Chloro-6-furan-2-yl-8-trifluoromethyl-imidazo[1,2-a]pyridin-2-yl)-3-phenyl-urea], 51.8%. As to `O=C(NCc1ccc(N2CCOCC2)cc1)c1nc2c(C(F)(F)F)cc(-c3ccco3)cn2c1Cl` [Compound 212, 3-Chloro-6-furan-2-yl-8-trifluoromethyl-imidazo[1,2-a]pyridine-2-carboxylic Acid 4-morpholin-4-yl-benzylamide], at 10 µM the inhibition was 56.7%. Under `O=C(NCc1cccc(N2CCOCC2)c1)c1nc2c(C(F)(F)F)cc(-c3ccco3)cn2c1Cl` [Compound 213, 3-Chloro-6-furan-2-yl-8-trifluoromethyl-imidazo[1,2-a]pyridine-2-carboxylic Acid 3-morpholin-4-yl-benzylamide] stands 2.7%. The result for `CN(C)CCOc1ccc(CNC(=O)c2nc3c(C(F)(F)F)cc(-c4ccco4)cn3c2Cl)cc1` [Compound 214, 3-Chloro-6-furan-2-yl-8-trifluoromethyl-imidazo[1,2-a]pyridine-2-carboxylic Acid 4-(2-dimethylamino-ethoxy)-benzylamide] reads 49%. Under `CN(C)CCOc1ccccc1CNC(=O)c1nc2c(C(F)(F)F)cc(-c3ccco3)cn2c1Cl` [Compound 215, 3-Chloro-6-furan-2-yl-8-trifluoromethyl-imidazo[1,2-a]pyridine-2-carboxylic Acid 2-(2-dimethylamino-ethoxy)-benzylamide] stands 49%; under `O=C(c1nc2c(C(F)(F)F)cc(-c3ccco3)cn2c1Cl)N1CCCC(c2ccccc2)C1` (stereo not drawn) [Compound 216, (3-Chloro-6-furan-2-yl-8-trifluoromethyl-imidazo[1,2-a]pyridin-2-yl)-(3-phenyl-piperidin-1-yl)-methanone], 60.3%. `O=C(c1nc2c(C(F)(F)F)cc(-c3ccco3)cn2c1Cl)N1Cc2cccnc2C1` [Compound 217, (3-Chloro-6-furan-2-yl-8-trifluoromethyl-imidazo[1,2-a]pyridin-2-yl)-(5,7-dihydro-pyrrolo[3,4-b]pyridin-6-yl)-methanone] gave an inhibition at 10 µM of 38.8%. The result for `O=C(c1nc2c(C(F)(F)F)cc(-c3ccco3)cn2c1Cl)N1CCC(c2ccccc2)CC1` [Compound 218, (3-Chloro-6-furan-2-yl-8-trifluoromethyl-imidazo[1,2-a]pyridin-2-yl)-(4-phenyl-piperidin-1-yl)-methanone] reads 63.5%; that for `O=C(NCc1ccc(-c2ccccn2)s1)c1nc2c(C(F)(F)F)cc(-c3ccco3)cn2c1Cl` [Compound 219, 3-Chloro-6-furan-2-yl-8-trifluoromethyl-imidazo[1,2-a]pyridine-2-carboxylic Acid (5-pyridin-2-yl-thiophen-2-ylmethyl)-amide], 25.4%.

`COC(=O)Cc1c(C(=O)NCc2cccs2)nc2c(C(F)(F)F)cc(-c3ccoc3)cn12` [Compound 222, {6-Furan-3-yl-2-[(thiophen-2-ylmethyl)-carbamoyl]-8-trifluoromethyl-imidazo[1,2-a]pyridin-3-yl}-acetic Acid Methyl Ester] registered an inhibition at 10 µM of 66.1%. The result for `O=C(O)Cc1c(C(=O)NCc2cccs2)nc2c(C(F)(F)F)cc(-c3ccoc3)cn12` [Compound 226, {6-Furan-3-yl-2-[(thiophen-2-ylmethyl)-carbamoyl]-8-trifluoromethyl-imidazo[1,2-a]pyridin-3-yl}-acetic Acid] reads 98.8%; that for `O=C(NCc1cccs1)c1nc2c(C(F)(F)F)cc(-c3ccoc3)cn2c1[N+](=O)[O-]` [Compound 232, 6-Furan-3-yl-3-nitro-8-trifluoromethyl-imidazo[1,2-a]pyridine-2-carboxylic Acid (thiophen-2-ylmethyl)-amide], 56.6%; that for `O=C(c1nc2c(C(F)(F)F)cc(-c3ccoc3)cn2c1Cl)N1CCC(c2ccc(F)cc2)C1` (stereo not drawn) [Compound 233, (3-Chloro-6-furan-3-yl-8-trifluoromethyl-imidazo[1,2-a]pyridin-2-yl)-[3-(4-fluoro-phenyl)-pyrrolidin-1-yl]-methanone], 90.6%. On to `O=C(c1nc2c(C(F)(F)F)cc(-c3cccc(F)c3)cn2c1Cl)N1CCC(c2ccc(F)cc2)C1` (stereo not drawn) [Compound 234, [3-Chloro-6-(3-fluoro-phenyl)-8-trifluoromethyl-imidazo[1,2-a]pyridin-2-yl]-[3-(4-fluoro-phenyl)-pyrrolidin-1-yl]-methanone], for which the inhibition at 10 µM came out at 81.8%. In turn, `COC(=O)Cc1c(C(=O)N2CCC(c3ccc(F)cc3)C2)nc2c(C(F)(F)F)cc(-c3ccoc3)cn12` (stereo not drawn) [Compound 235, {2-[3-(4-Fluoro-phenyl)-pyrrolidine-1-carbonyl]-6-furan-3-yl-8-trifluoromethyl-imidazo[1,2-a]pyridin-3-yl}-acetic Acid Methyl Ester] showed an inhibition at 10 µM of 96.6%. Under `O=C(O)Cc1c(C(=O)N2CCC(c3ccc(F)cc3)C2)nc2c(C(F)(F)F)cc(-c3ccoc3)cn12` (stereo not drawn) [Compound 236, {2-[3-(4-Fluoro-phenyl)-pyrrolidine-1-carbonyl]-6-furan-3-yl-8-trifluoromethyl-imidazo[1,2-a]pyridin-3-yl}-acetic Acid] stands 49%; under `O=C(c1nc2c(C(F)(F)F)cc(-c3cn[nH]c3)cn2c1Cl)N1CCC(c2ccc(F)cc2)C1` (stereo not drawn) [Compound 238, [3-Chloro-6-(1H-pyrazol-4-yl)-8-trifluoromethyl-imidazo[1,2-a]pyridin-2-yl]-[3-(4-fluoro-phenyl)-pyrrolidin-1-yl]-methanone], 86.9%. The result for `NC(=O)Cc1c(C(=O)N2CCC(c3ccc(F)cc3)C2)nc2c(C(F)(F)F)cc(-c3ccoc3)cn12` (stereo not drawn) [Compound 239, 2-{2-[3-(4-Fluoro-phenyl)-pyrrolidine-1-carbonyl]-6-furan-3-yl-8-trifluoromethyl-imidazo[1,2-a]pyridin-3-yl}-acetamide] reads 53%; that for `O=C(Cc1c(C(=O)N2CCC(c3ccc(F)cc3)C2)nc2c(C(F)(F)F)cc(-c3ccoc3)cn12)NCc1ccccc1` (stereo not drawn) [Compound 240, N-Benzyl-2-{2-[3-(4-fluoro-phenyl)-pyrrolidine-1-carbonyl]-6-furan-3-yl-8-trifluoromethyl-imidazo[1,2-a]pyridin-3-yl}-acetamide], 33.4%; that for `CN(C)CCNC(=O)Cc1c(C(=O)N2CCC(c3ccc(F)cc3)C2)nc2c(C(F)(F)F)cc(-c3ccoc3)cn12` (stereo not drawn) [Compound 241, N-(2-Dimethylamino-ethyl)-2-{2-[3-(4-fluoro-phenyl)-pyrrolidine-1-carbonyl]-6-furan-3-yl-8-trifluoromethyl-imidazo[1,2-a]pyridin-3-yl}-acetamide], 100%.

The molecule `O=C(Cc1c(C(=O)N2CCC(c3ccc(F)cc3)C2)nc2c(C(F)(F)F)cc(-c3ccoc3)cn12)NC1CC1` (stereo not drawn) [Compound 242, N-Cyclopropyl-2-{2-[3-(4-fluoro-phenyl)-pyrrolidine-1-carbonyl]-6-furan-3-yl-8-trifluoromethyl-imidazo[1,2-a]pyridin-3-yl}-acetamide] returned an inhibition at 10 µM of 93%. For `Cc1noc(Cc2c(C(=O)N3CCC(c4ccc(F)cc4)C3)nc3c(C(F)(F)F)cc(-c4ccoc4)cn23)n1` (stereo not drawn) [Compound 243, [3-(4-Fluoro-phenyl)-pyrrolidin-1-yl]-[6-furan-3-yl-3-(3-methyl-[1,2,4]oxadiazol-5-ylmethyl)-8-trifluoromethyl-imidazo[1,2-a]pyridin-2-yl]-methanone], the inhibition at 10 µM amounted to 86.2%. Under `CNC(=O)Cc1c(C(=O)N2CCC(c3ccc(F)cc3)C2)nc2c(C(F)(F)F)cc(-c3ccoc3)cn12` (stereo not drawn) [Compound 245, 2-{2-[3-(4-Fluoro-phenyl)-pyrrolidine-1-carbonyl]-6-furan-3-yl-8-trifluoromethyl-imidazo[1,2-a]pyridin-3-yl}-N-methyl-acetamide] stands 63.9%; under `O=C(NCc1cccs1)c1cn2nc(-c3ccccc3)cc(C(F)(F)F)c2n1` [Compound 248, 6-Phenyl-8-trifluoromethyl-imidazo[1,2-b]pyridazine-2-carboxylic Acid (thiophen-2-ylmethyl)-amide], 45.8%. The molecule `O=C(NCc1cccs1)c1nc2c(C(F)(F)F)cc(-c3ccccc3)nn2c1Cl` [Compound 249, 3-Chloro-6-phenyl-8-trifluoromethyl-imidazo[1,2-b]pyridazine-2-carboxylic Acid(thiophen-2-ylmethyl)-amide] displayed an inhibition at 10 µM of 81.4%.
